Test results published in ChEMBL document CHEMBL1126134, “7,8-Dihydro-8-ethyl-2-(3-noradamantyl)-4-propyl-1H-imidazo[2,1-i]purin-5(4H)-one: a potent and water-soluble adenosine A1 antagonist” (J Med Chem, 1992).
Converted amounts (≈) assume the structure as drawn.

What was measured:
Adenosine receptor A1 [1] = target: T1, Adenosine receptor A1 (Cavia porcellus, UniProt P47745); format: cell membranes, Brain membranes
T1 sequence (P47745 whole entry): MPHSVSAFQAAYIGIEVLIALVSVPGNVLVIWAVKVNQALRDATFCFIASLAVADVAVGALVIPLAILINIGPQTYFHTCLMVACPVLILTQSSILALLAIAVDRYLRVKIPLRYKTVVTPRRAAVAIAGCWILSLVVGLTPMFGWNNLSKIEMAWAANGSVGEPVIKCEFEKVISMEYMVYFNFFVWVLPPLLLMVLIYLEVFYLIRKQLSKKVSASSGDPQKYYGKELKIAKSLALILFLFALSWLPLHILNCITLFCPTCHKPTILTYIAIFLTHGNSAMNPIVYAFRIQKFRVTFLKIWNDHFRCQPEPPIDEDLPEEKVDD

physchem = conditions: water
Description: Solubility of the compound(10 mg) was measured in water(2.5 mL) at 20 degree celsius for 1 hr

[2] = Solubility was measured in saline; format: physicochemical
Adenosine receptor A1 [3] = target: T1, Adenosine receptor A1; format: cell membranes, Brain membranes; remark: listed apart in the source
Adenosine A2 receptor = Adenosine A2 receptor (Homo sapiens, UniProt P29275+P29274); assay: Binding affinity for adenosine A2 receptor using N-[3H]-ethyladenosin-5''-uronamide in guinea pig forebrain membranes

Row | Ki (Adenosine receptor A1 [1]) | solubility at 1 h (physchem) | solubility [2] | Ki (Adenosine receptor A1 [3]) | Ki (Adenosine A2 receptor) | SMILES
1 | 2.7 nM | 3000 µg/mL (≈ 8160 µM) |  |  |  | CCCN1C(=O)N2C[C@@H](CC)N=C2c2[nH]c(C34CC5CC(CC3C5)C4)nc21
2 | 120 nM | 2900 µg/mL (≈ 7890 µM) |  |  |  | CCCN1C(=O)N2C[C@H](CC)N=C2c2[nH]c(C34CC5CC(CC3C5)C4)nc21
3 |  | 220 µg/mL (≈ 691 µM) | 200 µg/mL (≈ 628 µM) |  |  | CCCn1c(=O)c2[nH]c(C3CCC(=O)C3)nc2n(CCC)c1=O (stereo not given)
4 |  | 3200 µg/mL (≈ 8710 µM) | 990 µg/mL (≈ 2690 µM) | 5.7 nM |  | CCCN1C(=O)N2CC(CC)N=C2c2[nH]c(C34CC5CC(CC3C5)C4)nc21 (stereo not given)
5 |  | 0.5 µg/mL (≈ 1.4 µM) | 0.6 µg/mL (≈ 1.68 µM) |  |  | CCCn1c(=O)c2[nH]c(C34CC5CC(CC3C5)C4)nc2n(CCC)c1=O [ROLOFYLLINE]
6 |  | 3.3 µg/mL (≈ 10.8 µM) |  |  |  | CCCn1c(=O)c2[nH]c(C3CCCC3)nc2n(CCC)c1=O [1,3-DIPROPYL-8-CYCLOPENTYLXANTHINE [DPCPX]]
7 |  | 8.5 µg/mL (≈ 25.7 µM) | 5.8 µg/mL (≈ 17.6 µM) |  | 430 nM | CCCn1c(=O)c2nc(C(C3CC3)C3CC3)[nH]c2n(CCC)c1=O
